Data set [1] deals with T1, human NOD2 (Homo sapiens, UniProt Q9HC29).
T1 construct: host or cells: HEK-Blue Human NOD2 reporter cells (HEK 293)
Briefly: NOD2 specific reporter assay (SEAP, Quanti blue). Type of data set: cell-based. Conditions: HEK-Blue Human NOD2 reporter cells, 24-72 hrs, read-out: EC50 (half maximal response) (converted). How it is done: Muramyl dipeptide molecules have the ability to bind to NOD2 receptors that are present on the surface of the immune cells, so as to stimulate immune response. NOD2 (Nucleotide oligomerization domain) receptor is an intracellular pattern recognition receptor (PRRs) recognizes muramyl dipeptide derivatives and stimulates cascade of signaling pathways to induce immune response. […] These cells were prepared by co-transfection of human NOD2 gene and codon-optimized SEAP (secreted embryonic alkaline phosphatase) reporter gene into HEK 293 cells. Upon stimulation of cells with muramyl dipeptide derivative, NFkB gets activated, which inturn secrets SEAP and it was measured in cell supernatant. Experimental details of this in-vitro assay are given as example 2.1.
HEK—Blue Human NOD2 reporter cells (5×10^4/well) were plated and cultured overnight in a humidified CO2 incubator at 37° C. Next day, cells were treated with various concentrations of MDP-ET, (0.001 mg/ml to 1 mg/ml) and cultured for 24-72 hrs. Supernatant was collected and treated with Quanti blue detection reagent at 37° C. for 15-30 min. Absorbance was read at 630 nm. […] To generate dose response curve, highest absorbance shown at tested concentration was taken as 100% response and the least absorbance was taken as 0% response. […]

The subject of data set [2] is J774.2A cells. Briefly: Cytotoxicity assay (MTT). Type of data set: cell-based. Conditions: 24 hrs, read-out: IC50 (50% cell death or toxicity). On the procedure: Details of an assay are as explained in example 2.2.
J774.2A cells (2×10^4/well) were plated and incubated overnight. Next day, cells were treated with various concentrations of MDP-ET (10 fold dilutions with a concentration ranging from 0.005 mg/ml to 0.5 mg/ml & 2 mg/ml) and cultured for 24 hrs. Supernatant was discarded and cells were treated with 100 μl of MTT [3-(4,5-Dimethylthiazol-2-yl)-2,5-Diphenyltetrazolium Bromide] (5 mg/ml) and incubated for 3-4 hrs until formozan crystals were formed. Later, supernatant was discarded and crystals were dissolved with DMSO for 5-10 min. Absorbance was read at 540 nm. FIG. 2 represents cell toxicity effect of MDP-ET. X-axis represents concentration in log scale and Y-axis represents % toxicity.

In data set [3] the test system is Wistar rats. The experiment in a line: Maximum Tolerated Dose test. Type of data set: in vivo. How it is done: This particular beneficial property was evidenced by Maximum Tolerated Dose test done using rat as an animal model.
Maximum Tolerated Dose test: Wistar rats (n=6, 3M & 3F) were administered intramuscularly (i.m) with MDP-ET containing fixed adjuvant dose of 10, 50 and 100 μg/animal/200 μl in an ascending manner. Animals were observed daily for a period of 14 days for clinical signs & mortality. Body weight was measured daily. Food and water consumed by animals were also monitored daily for any abnormalities & food and water intake per animal was also calculated. Body temperature was measured for every 4 hours up to 24 hrs, later once in daily up to 7 days and then followed by alternate day up to day 14. Rats were sacrificed on day 14 and organs/tissues such as site of injection, spleen, thymus, brain, lungs, Heart, liver, Kidney were collected and done macroscopic examination. […] It indicates rats are tolerable even at high dose (100 μg/animal). Blood was collected between 24-36 hrs were tested for CRP levels, after the injection. Higher (600-1000 μg/ml, normal range 200-550 μg/ml in rats) CRP levels were found at higher dose (100 μg/animal).
However, due to moderate or high levels of IL-6 levels as found in In-vitro pyrogenicity test, it can be concluded that MDP-ET may be pyrogenic at tested high concentration (100 μg/animal), which in turn correlated with high levels of CRP found immediately after giving dose.

≈ marks a conversion by molar mass, not a printed value.

T1 sequence (Q9HC29 whole entry): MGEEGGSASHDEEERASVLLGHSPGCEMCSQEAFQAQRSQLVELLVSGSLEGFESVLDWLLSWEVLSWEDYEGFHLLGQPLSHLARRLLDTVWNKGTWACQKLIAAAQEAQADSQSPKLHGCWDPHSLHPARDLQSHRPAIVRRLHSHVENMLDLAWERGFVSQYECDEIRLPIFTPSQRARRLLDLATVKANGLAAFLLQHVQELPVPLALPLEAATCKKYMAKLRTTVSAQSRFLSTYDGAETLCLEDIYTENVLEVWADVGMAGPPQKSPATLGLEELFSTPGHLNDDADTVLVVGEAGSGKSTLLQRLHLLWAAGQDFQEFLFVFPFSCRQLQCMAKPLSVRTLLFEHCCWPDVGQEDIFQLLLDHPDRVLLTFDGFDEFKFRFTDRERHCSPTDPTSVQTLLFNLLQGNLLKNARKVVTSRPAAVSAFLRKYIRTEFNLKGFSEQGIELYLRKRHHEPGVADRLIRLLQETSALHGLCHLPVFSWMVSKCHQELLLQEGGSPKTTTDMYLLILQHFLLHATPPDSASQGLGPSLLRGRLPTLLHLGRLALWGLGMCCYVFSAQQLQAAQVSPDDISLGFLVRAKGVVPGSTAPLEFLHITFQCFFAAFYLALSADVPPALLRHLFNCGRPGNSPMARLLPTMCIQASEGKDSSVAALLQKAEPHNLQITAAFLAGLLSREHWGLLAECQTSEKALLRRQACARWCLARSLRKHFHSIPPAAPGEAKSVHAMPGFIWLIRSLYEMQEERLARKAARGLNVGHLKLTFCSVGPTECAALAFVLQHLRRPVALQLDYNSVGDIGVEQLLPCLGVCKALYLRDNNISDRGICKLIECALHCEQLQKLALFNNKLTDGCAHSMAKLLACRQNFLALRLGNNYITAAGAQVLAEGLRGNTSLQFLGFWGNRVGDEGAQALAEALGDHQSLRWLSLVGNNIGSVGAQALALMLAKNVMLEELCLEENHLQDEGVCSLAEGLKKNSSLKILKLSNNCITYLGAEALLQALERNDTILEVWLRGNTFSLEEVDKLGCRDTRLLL

Turning to `CCOC(=O)N[C@H]1C(O)O[C@H](CO)[C@@H](O)[C@@H]1O[C@H](C)C(=O)N[C@@H](C)C(=O)N[C@H](CCC(=O)O)C(N)=O` (stereo partly drawn) [MDP-ET, (4R)-5-amino-4-((2S)-2-((2R)-2-(((3R,4R,5S,6R)-3-((ethoxycarbonyl)amino)-2,5-dihydroxy-6-(hydroxymethyl)tetrahydro-2H-pyran-4-yl)oxy)propanamido)propanamido)-5-oxopentanoic acid], the EC50 in data set [1] was 421 nM. In addition, in data set [2], the IC50 came to 410 µg/mL (≈ 785 µM). The CRP levels is 600 to 1000 µg/mL in data set [3] (100 μg/animal, blood 24-36 hrs after injection, normal range 200-550 μg/ml in rats) and “normal” in data set [3] (after 14 days). Also, the tolerated dose in data set [3] (Wistar rats, i.m., 14 days observation) is ≥ 100 μg/rat. Also, the “macroscopic examination of organs/tissues” value in data set [3] (day 14, site of injection, spleen, thymus, brain, lungs, heart, liver, kidney) is recorded as “No significant lesions or abnormalities”. The clinical signs entry in data set [3] (even at tested high dose (100 μg/animal), 14 days) was “no significant clinical signs”. Moreover, the weight gain result in data set [3] (high dose (100 μg/animal), compared to untreated animals) was “weight gain is less”. Moreover, the mortality result in data set [3] (i.m. 10, 50 and 100 μg/animal, 14 days) is recorded as “no mortality”. Moreover, the body temperature result in data set [3] (up to 14 days) is recorded as “no temperature raise”.
